Consider 1 molecule from PMC10587737, “Dracorhodin targeting CMPK2 attenuates inflammation: A novel approach to sepsis therapy” (Clinical and Translational Medicine, 2023).

The test system of one assay is BMDMs. In words: Mitochondrial membrane potential (JC-1) and mtROS (MitoSOX). It is filed as cell-based, mouse. The note with it: DP 12 h, LPS priming, ATP. As to the method: The treated bone marrow‐derived macrophages (BMDMs) and JC‐1 working solution were incubated in a cell incubator for 30 min. At the end of the warm incubation, the cells were washed three times with PBS, and images were captured with a Harmony 4.8 (PerkinElmer). Meanwhile, the stained BMDMs were quantified by flow cytometry.
For mitochondrial ROS (mtROS) measurement, according to the instruction guidelines, a diluted 5 μM MitoSOX working solution was incubated with treated BMDMs in a cell incubator for 10 min according to the instructional guidelines. The BMDMs were gently washed with warm buffer to remove the working solution. The images were captured using Harmony 4.8 (PerkinElmer). Meanwhile, the stained BMDMs were quantified by flow cytometry.

The target of another assay is T1, CMPK2 lysine residues (Homo sapiens, UniProt Q5EBM0).
T1 construct: the N‐terminus was truncated by 22 amino acids; 6xHis (C); made in house; host or cells: FreeStyle 293-F cells (pTT5 vector)
T1 sequence (Q5EBM0 22-449): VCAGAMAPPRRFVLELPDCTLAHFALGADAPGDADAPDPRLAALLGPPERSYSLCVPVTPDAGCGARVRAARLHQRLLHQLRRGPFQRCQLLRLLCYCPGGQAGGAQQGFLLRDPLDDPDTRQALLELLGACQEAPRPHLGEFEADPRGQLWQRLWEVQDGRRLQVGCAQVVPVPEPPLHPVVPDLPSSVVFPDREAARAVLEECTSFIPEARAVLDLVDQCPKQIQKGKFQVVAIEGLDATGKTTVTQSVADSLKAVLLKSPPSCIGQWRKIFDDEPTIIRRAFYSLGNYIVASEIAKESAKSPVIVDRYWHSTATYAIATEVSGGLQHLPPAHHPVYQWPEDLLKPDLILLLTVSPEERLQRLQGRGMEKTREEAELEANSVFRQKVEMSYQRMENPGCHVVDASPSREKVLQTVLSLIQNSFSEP
In words: Quantitative lysine reactivity profiling (dimethyl labelling). How it is done:
The extent of DP intervention on lysine residues of CMPK2 conformational changes was visualized and the correlation between this effect and the inhibitory potency of the inhibitor was assessed. […] Finally, after the concentration of the active small molecule was fixed, the concentration of the target protein CMPK2 was tested for lysine labelling reactivity according to a gradient of 0.025, 0.05 and 0.1 mg/mL. The range of concentrations used to investigate the effect of small‐molecule ligands on CMPK2 activity was 0.1–150 μM. Each data point contains three biological replicates.
Stable isotope labeling reactions were performed in the active state of the target protein samples. In short, the sample was split into two identical portions. One portion was incubated with DP, and the other was incubated with DMSO vehicle for 30 min at 37℃. Then, mass-differentiated isotopic labeling was performed with heavy (30 mM CD2O, 5 mM NaBH3CN) and light (30 mM CH2O, 5 mM NaBH3CN) labeling reagents. Active isotopic labeling was allowed to proceed for the indicated time, and this experiment allowed incubation for 15 min at 25℃ in the dark. Add 5 M NH4AC and react for 10 min at room temperature to stop the labeling reaction. […] The digested peptide samples were collected by centrifugation, lyophilized, and stored at -80℃ for quantitative proteomic analysis.

Another assay concerns the target CMPK2^Lys320 protein. In words: MST binding to CMPK2 Lys320 mutant. Also on record: species or system human. Conditions: Lys320 mutated. How it is done: Human CMPK2 and K265, K282 and K320 mutated CMPK2 cDNA were cloned and inserted into the pTT5 vector, and the constructed plasmid was amplified by the DH5α strain. The C‐terminus of the cDNA was fused with a 6× His tag, and the N‐terminus was truncated by 22 amino acids (Figure 1B–F and Supporting Information Figure S5A,B). When the free‐style 293‐F cells reached the proper density, approximately 1 mg of expression plasmid was premixed with 3 mg polyethylenimine in UltraFectin medium and incubated prior to transfection. This mixture was then added to the appropriate amount of fresh cell culture medium, incubated for 30 min and collected after 48 h.
The MST assay is an emerging technique used to quantitatively elucidate binding. The binding parameter between CMPK2 and DP was measured using MST on a Monolith NT.115 system (Germany). CMPK2 was fluorescently labeled with the Monolith NT Protein Labeling Kit RED (L018, NanoTemper Technologies GmbH, Munich, Germany) according to the manufacturer’s instructions. The Monolith NT.115 system was used with Monolith NT.115 standard capillaries (M0-K022). MST assay buffer was used to dilute the labeled CMPK2 to 2 μM. […] The binding and dissociation constants (Kd) were evaluated and calculated using M0-Affinity analysis software version 2.1.3 (Nano Temper Technologies) for the ligand.

In assay [1] the test system is ASC oligomerization in BMDMs. In words: ASC oligomerization assay. It is filed as cell-based, mouse. The note with it: DP 12 h before or 1 h after LPS; ATP/Nigericin. How it is done: BMDMs were seeded at 1×10^6 cells/ml in 6-well plates. After cell adherence, BMDMs were treated with different concentrations of DP. The following day, the medium was replaced, and the cells were primed with 200 ng/ml LPS for 4 h and then stimulated with Nigericin or ATP for 45 min. BMDMs were primed with 200 ng/ml LPS for 4 h. The cells were treated with DP for 1 h and then stimulated with Nigericin or ATP for 45 min. The supernatant was removed, the cells were rinsed in ice-cold PBS, and then, the cells were lysed with NP-40 for 30 min. Lysates were centrifuged at 6000×g for 10 min at 4°C. The pellets were washed twice in 200 μl of ice-cold PBS and resuspended in 200 μl of PBS. Then, 2 mM disuccinimidyl suberate (DSS) was added to the resuspended pellets, which were incubated at room temperature for 30 min with rotation. Samples were then centrifuged at 6000×g for 10 min at 4°C. The cross-linked pellets were resuspended in 40 μl of 2× loading buffer and then boiled and analyzed by immunoblotting.

On to `COc1c2ccc(-c3ccccc3)oc-2cc(=O)c1C` [compound 73, Dracohodin perochlorate], for which, in the assay on BMDMs, the mitochondrial membrane potential result was “significantly reversed” and the mtROS production entry is listed as “inhibited”. At CMPK2 lysine residues (residues K245, K249, K282, K320, K324, K293, K265, K251, K277 and K368), the “isotope-labelling ratios of lysine residues” value is “lower than 0.5”. At CMPK2 lysine residues (residues K393, K433 and K409, DP–CMPK2 co-incubation), the “isotope-labelling ratios of lysine residues” value was “approximately 1”. Moreover, on CMPK2^Lys320 protein, the “binding (Kd by MST)” value is given as “no binding”. Further, the ASC oligomerization entry in assay [1] is reported as “blocked”.
